Measurements reported in patent publication US20260317312A1, “ISOXAZOLIDINES AS RIPK1 INHIBITORS AND USE THEREOF” (GENZYME CORPORATION, priority 2023, published 2026).

Key:
[1] = molecular target: T1, hRIPK1 (aa 1-375) fusion protein (Homo sapiens, UniProt Q13546); assay: Receptor-Interacting Protein Kinase 1 inhibition, ADP Glo assay (conversion of ATP to ADP due to autophosphorylation); format: biochemical; conditions: ATP 50 μM, 30 min preincubation, 240 min incubation, room temperature, DMSO 1%
T1 construct: hRIPK1 (aa 1-375) fusion protein
T1 sequence (Q13546 1-375): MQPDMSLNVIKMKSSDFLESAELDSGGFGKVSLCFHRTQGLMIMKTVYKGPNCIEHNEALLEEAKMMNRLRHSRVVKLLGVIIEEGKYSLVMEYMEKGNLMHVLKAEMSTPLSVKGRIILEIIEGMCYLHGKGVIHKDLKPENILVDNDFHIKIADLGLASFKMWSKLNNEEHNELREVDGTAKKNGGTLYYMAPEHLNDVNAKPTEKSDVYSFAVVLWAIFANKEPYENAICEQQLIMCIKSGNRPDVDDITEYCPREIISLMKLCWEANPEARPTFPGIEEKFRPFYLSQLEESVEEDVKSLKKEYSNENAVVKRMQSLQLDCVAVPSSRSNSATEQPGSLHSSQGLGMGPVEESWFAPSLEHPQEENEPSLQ
Description: The catalytic activity of RIPK1 was measured by monitoring the conversion of Adenosine triphosphate (ATP) to Adenosine diphosphate (ADP) due to autophosphorylation using an ADP-Glo kinase kit (Promega, catalog no. V9104).
In detail, 2 μl recombinantly produced hRIPK1 (aa 1-375) fusion protein (end concentration 3.6 μg/ml) and 2 μl compound (end concentration 33300-1.69 nM; DMSO end concentration 1%) were incubated for 30 minutes at room temperature and then 2 μl ATP (ADP Glo kit, end concentration 50 μM) were added. After another 240 minutes incubation at room temperature, 5 μl Promega ADP-Glo reagent I was added to quench the reaction and deplete unconsumed ATP. After an incubation period of 30 minutes, 10 μl Promega ADP-Glo detection reagent II was added resulting in conversion of ADP to ATP, which generates a light-reaction between luciferase and luciferin. Luminescence was quantified after 30 minutes with a Pherastar FS (BMG LABTECH, Ortenberg).
The adjustment was obtained by nonlinear regression using the Levenberg Marquardt algorithm.

[2] = tested on: U937 cells; assay: Cellular assay in U937 cells to measure activity of RIPK1-inhibitors on cell death (necroptosis); format: cell-based; conditions: overnight (18 to 24 hrs), 37° C., MTS readout
From the text: Upon TNF-Receptor I ligation, Ser/Thr kinase RIPK1 is recruited to a transient receptor complex I. Upon modification of RIPK1 which promotes activation of RIPK1, complex lib can form, that involves recruitment of RIPK3 and MLKL (mixed lineage-kinase domain-like protein) which then translocates from the cytosol to the plasma membrane to execute cell death (Cai, Z. et al, Nat. Cell Biol. (2014)16:55-65).
Cell death was quantified in 96 well plates by determination of the amount of live cell using a CellTiter 96 Aqueous reagent (Promega), a calorimetric method to measure the number of live cells by reducing tetrazolium compound [3-(4,5-dimethylthiazol-2-yl)-5-(3-carboxymethoxyphenyl)-2-(4-sulfophenyl)-2H-tetrazolium, inner salt; MTS] into formazan. Absorbance of formazan was read at 490 nm. The inhibitory activity of the test compound was quantified in a concentration response curve (CRC) experiment.
Compounds were obtained as 10 mM stock solutions and were diluted 1 to 10 volumes with DMSO to yield a 1 mM solution. From this solution 2 μl were diluted with 998 μl growth medium. 100 μl of 2 μM compound solution was further diluted sequentially with a dilution factor of 2.5 by adding 150 μl growth medium. A total of 10 concentrations were tested ranging from 10 μM to 0.26 nM or from 1 μM to 0.07 nM.
U937 cells were cultured in RPM11640 Glutamax and 10% heat inactivated FBS. 50 μl cell suspension containing 1×10^6 cells/ml supplemented with 50 μM zVAD.fmk (Benzyloxycarbonyl-Val-Ala-Asp (Ome) fluoromethylketone) and 100 ng/ml recombinant human TNFα were dispensed in each well of a 96-well plate. 50 μl of compound dilutions (described in Cellular assay in U937 cells) were added and the cell suspension incubated overnight (18 to 24 hrs) at 37° C., 5% CO2 in a humidified atmosphere (95% rH). High (no compound) and low control (no TNFα, zVAD.fmk) were tested with 7 replicates; all compound concentrations were tested in duplicates on each experimental plate.
CellTiter 96 Aqueous reagent was mixed (100 μl PMS (phenazine methosulfate) solution/2 ml MTS (3-(4,5-[…])-5-(3-carboxymethoxyphenyl)-2-(4-sulfophenyl)-2H-tetrazolium, inner salt) solution) and 20 μl were added per well. After 4 hrs incubation at 37° C. (5% CO2 95% rH) optical density was measured at 490 nm on a microplate reader (Tecan Infinite M1000).
The % inhibition is expressed as percentage of the maximal inhibition value obtained in the absence of TNFα/zVAD.fmc.

[3] = Homo sapiens, U-937, TNFα/zVAD.fmk induced cell death (necroptosis)
[4] = TNFα/zVAD.fmk induced cell death (necroptosis)

SMILES | IC50 [1] [µM] | IC50 [2, 3] [µM] | IC50 [2, 4] [µM]
N#Cc1cc(F)cc([C@@H]2CCON2C(=O)[C@H]2C[C@@H](Nc3ccc(F)c(C#N)c3)C2)c1 [Compound 32, cis-5-((3-((S)-3-(3-cyano-5-fluorophenyl)isoxazolidine-2-carbonyl)cyclobutyl)amino)-2-fluorobenzonitrile] | 0.028 | 0.05 | –
N#Cc1cc(N[C@H]2C[C@@H](C(=O)N3OCC[C@H]3c3cncc(F)c3)C2)ccc1F [Compound 33, cis-2-fluoro-5-((3-((S)-3-(5-fluoropyridin-3-yl)isoxazolidine-2-carbonyl)cyclobutyl)amino)benzonitrile] | 0.022 | – | 0.061
N#Cc1cc(NC[C@H]2CC[C@H](C(=O)N3OCC[C@H]3c3cncc(F)c3)CC2)ccc1F [Compound 34, trans-2-fluoro-5-(((4-((S)-3-(5-fluoropyridin-3-yl)isoxazolidine-2-carbonyl)cyclohexyl)methyl)amino)benzonitrile] | 0.02 | 0.011 | –
N#Cc1cc(F)cc([C@@H]2CCON2C(=O)[C@H]2CC[C@H](CNc3ccc(F)c(C#N)c3)CC2)c1 [Compound 35, trans-5-(((4-((S)-3-(3-cyano-5-fluorophenyl)isoxazolidine-2-carbonyl)cyclohexyl)methyl)amino)-2-fluorobenzonitrile] | 0.018 | – | 0.004
N#Cc1cc(F)cc(N[C@H]2C[C@@H](C(=O)N3OCC[C@H]3c3cncc(F)c3)C2)c1 [Compound 36, cis-3-fluoro-5-((3-((S)-3-(5-fluoropyridin-3-yl)isoxazolidine-2-carbonyl)cyclobutyl)amino)benzonitrile] | 0.042 | 0.098 | –
N#Cc1cc(F)cc(N[C@H]2C[C@@H](C(=O)N3OCC[C@H]3c3cc(F)cc(C#N)c3)C2)c1 [Compound 37, cis-3-((S)-2-(3-((3-cyano-5-fluorophenyl)amino)cyclobutane-1-carbonyl)isoxazolidin-3-yl)-5-fluorobenzonitrile] | 0.034 | 0.045 | –
N#Cc1cc(F)cc(NC[C@H]2CC[C@H](C(=O)N3OCC[C@H]3c3cc(F)cc(C#N)c3)CC2)c1 [Compound 38, trans-3-((S)-2-(4-(((3-cyano-5-fluorophenyl)amino)methyl)cyclohexane-1-carbonyl)isoxazolidin-3-yl)-5-fluorobenzonitrile] | 0.027 | 0.022 | –
N#Cc1cc(F)cc(N[C@H]2CC[C@@H](C(=O)N3OCC[C@H]3c3cc(F)cc(C#N)c3)CC2)c1 [Compound 39, cis-3-((S)-2-(4-((3-cyano-5-fluorophenyl)amino)cyclohexane-1-carbonyl)isoxazolidin-3-yl)-5-fluorobenzonitrile] | 0.111 | 0.401 | –
N#Cc1cc(F)cc([C@@H]2CCON2C(=O)[C@H]2C[C@@H](n3cnc4ccccc43)C2)c1 [Compound 40, cis-3-((S)-2-(3-(1H-benzo[d]imidazol-1-yl)cyclobutane-1-carbonyl)isoxazolidin-3-yl)-5-fluorobenzonitrile] | 0.018 | 0.262 | –
O=C([C@H]1C[C@@H](n2cnc3ccccc32)C1)N1OCC[C@H]1c1cc(F)cc(F)c1 [Compound 41, cis-(3-(1H-benzo[d]imidazol-1-yl)cyclobutyl)((S)-3-(3,5-difluorophenyl)isoxazolidin-2-yl)methanone] | 0.016 | 0.061 | –
O=C([C@H]1C[C@@H](n2cnc3ccccc32)C1)N1OCC[C@H]1c1cncc(F)c1 [Compound 42, cis-(3-(1H-benzo[d]imidazol-1-yl)cyclobutyl)((S)-3-(5-fluoropyridin-3-yl)isoxazolidin-2-yl)methanone] | 0.156 | 0.921 | –
N#Cc1cc(OC[C@H]2CC[C@H](C(=O)N3OCC[C@H]3c3cc(F)cc(F)c3)CC2)ccc1F [Compound 43, trans-5-((4-((S)-3-(3,5-difluorophenyl)isoxazolidine-2-carbonyl)cyclohexyl)methoxy)-2-fluorobenzonitrile] | 0.011 | 0.002 | –
N#Cc1cc(F)cc([C@@H]2CCON2C(=O)[C@H]2CC[C@H](COc3ccc(F)c(C#N)c3)CC2)c1 [Compound 44, trans-5-((4-((S)-3-(3-cyano-5-fluorophenyl)isoxazolidine-2-carbonyl)cyclohexyl)methoxy)-2-fluorobenzonitrile] | 0.027 | 0.005 | –
N#Cc1cc(OC[C@H]2CC[C@H](C(=O)N3OCC[C@H]3c3cc(F)cc(F)c3)CC2)ncn1 [Compound 45, trans-6-((4-((S)-3-(3,5-difluorophenyl)isoxazolidine-2-carbonyl)cyclohexyl)methoxy)pyrimidine-4-carbonitrile] | 0.044 | 0.038 | –
O=C([C@H]1CC[C@H](COc2cc(Cl)ncn2)CC1)N1OCC[C@H]1c1cc(F)cc(F)c1 [Compound 46, trans-(4-(((6-chloropyrimidin-4-yl)oxy)methyl)cyclohexyl)((S)-3-(3,5-difluorophenyl)isoxazolidin-2-yl)methanone] | 0.041 | 0.014 | –
NC(=O)c1cc(OC[C@H]2CC[C@H](C(=O)N3OCC[C@H]3c3cc(F)cc(F)c3)CC2)ncn1 [Compound 47, trans-6-((4-((S)-3-(3,5-difluorophenyl)isoxazolidine-2-carbonyl)cyclohexyl)methoxy)pyrimidine-4-carboxamide] | 0.05 | 0.021 | –
N#Cc1cc(F)cc(OC[C@H]2CC[C@H](C(=O)N3OCC[C@H]3c3cc(F)cc(F)c3)CC2)c1 [Compound 48, trans-3-((4-((S)-3-(3,5-difluorophenyl)isoxazolidine-2-carbonyl)cyclohexyl)methoxy)-5-fluorobenzonitrile] | 0.044 | 0.013 | –
N#Cc1cc(F)cc(OC[C@H]2CC[C@H](C(=O)N3OCC[C@H]3c3cc(F)cc(C#N)c3)CC2)c1 [Compound 49, trans-3-((S)-2-(4-((3-cyano-5-fluorophenoxy)methyl)cyclohexane-1-carbonyl)isoxazolidin-3-yl)-5-fluorobenzonitrile] | 0.044 | 0.018 | –
N#Cc1cc(F)cc(O[C@H]2C[C@H](C(=O)N3OCC[C@H]3c3cc(F)cc(F)c3)C2)c1 [Compound 50, trans-3-(3-((S)-3-(3,5-difluorophenyl)isoxazolidine-2-carbonyl)cyclobutoxy)-5-fluorobenzonitrile] | 0.025 | 0.13 | –
N#Cc1cc(O[C@H]2C[C@H](C(=O)N3OCC[C@H]3c3cc(F)cc(F)c3)C2)ccc1F [Compound 51, trans-5-(3-((S)-3-(3,5-difluorophenyl)isoxazolidine-2-carbonyl)cyclobutoxy)-2-fluorobenzonitrile] | 0.021 | 0.006 | –
N#Cc1cc(OC[C@H]2CC[C@@H](C(=O)N3OCC[C@H]3c3cc(F)cc(F)c3)CC2)ccc1F [Compound 52, cis-5-((4-((S)-3-(3,5-difluorophenyl)isoxazolidine-2-carbonyl)cyclohexyl)methoxy)-2-fluorobenzonitrile] | 0.018 | 0.006 | –
